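Protocol summary: plate cells (96-well), add compound at 5 concentrations, incubate 48 h, interpolate endpoints linearly. GI50 marks 50% less growth. TGI: total growth inhibition.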 A value given as a limit tells only on which side of the number the result lay.

Some test systems named below: RPMI-8226 leukemia; COLO 205 colon; HOP-92 NSCLC; SN12C renal; NCI-H226 lung; T-47D breast; SF-268 CNS; SR leukemia; HOP-62 NSCLC; 786-0 renal.
Holding throughout (assay): NCI anticancer screen, dose series, 48 h

Regarding `COc1ccc(-c2nn(-c3cccc(Cl)c3)cc2-c2nc(N)[nH]c(=O)c2C#N)cc1`, the GI50 in the test with RPMI-8226 leukemia is 5.63 µM; in the test with COLO 205 colon, 7.65 µM; in the test with HOP-92 NSCLC, 1.65 µM; in the test with SN12C renal, 6.41 µM; in the test with NCI-H226 lung it was 6.23 µM; with T-47D breast, 6.05 µM. In addition, the GI50 in the test on SF-268 CNS was 5.86 µM; in the test with SR leukemia, 3.73 µM; in the test with HOP-62 NSCLC it was 10.1 µM; with 786-0 renal, 4.65 µM. Also, the TGI in the test with RPMI-8226 leukemia was 55.5 µM; with COLO 205 colon it was 20.9 µM; in the test with HOP-92 NSCLC, 12.2 µM; in the test on SN12C renal, above 100 µM; with NCI-H226 lung, 70.3 µM; in the test with T-47D breast it was 32.2 µM. In addition, the TGI in the test on SF-268 CNS stood at 35.4 µM; with SR leukemia, 21.2 µM; in the test on HOP-62 NSCLC it was 26.2 µM; with 786-0 renal it was 33.5 µM.
For the molecule `COC(=O)[C@]12CC[C@@H](C)[C@H](C)[C@@H]1C1=CC[C@@H]3[C@@]4(C)C(C=O)=C[C@@](C)(COC(=O)c5ccco5)[C@@H]4[C@H](O)C[C@@]3(C)[C@]1(C)CC2`, the GI50 in the test on RPMI-8226 leukemia is 1.76 µM; in the test on COLO 205 colon, 0.0493 µM; in the test on HOP-92 NSCLC, 1.56 µM; with SN12C renal it was 3.44 µM; with NCI-H226 lung, 1.94 µM; in the test on T-47D breast, 2.37 µM. Also, the GI50 was 2.66 µM in the test on SF-268 CNS, 1.8 µM in the test with SR leukemia, 2.16 µM in the test on HOP-62 NSCLC and 2.4 µM with 786-0 renal. For the same molecule, the TGI in the test on RPMI-8226 leukemia was 6.7 µM; in the test on COLO 205 colon, 0.355 µM; with HOP-92 NSCLC, 4.27 µM; with SN12C renal, 83.2 µM; with NCI-H226 lung, 4.14 µM; with T-47D breast, 39.5 µM. In addition, the TGI in the test on SF-268 CNS stood at 12.6 µM; in the test on SR leukemia, 5.13 µM; in the test with HOP-62 NSCLC, 6.07 µM; with 786-0 renal, 7.13 µM.
With `COc1ccc(-c2cc(Nc3ccnc(N4CCOCC4)n3)on2)cc1`, the GI50 is 0.416 µM in the test with RPMI-8226 leukemia; 0.239 µM in the test on COLO 205 colon; 3.46 µM in the test with HOP-92 NSCLC; 0.7 µM in the test with SN12C renal; 0.751 µM in the test with NCI-H226 lung; 0.566 µM in the test with T-47D breast. The GI50 in the test on SF-268 CNS is 1.85 µM; with SR leukemia, 0.0566 µM; in the test with HOP-62 NSCLC, 0.372 µM; in the test on 786-0 renal it was 0.376 µM. Also, the TGI came out at 18.6 µM with RPMI-8226 leukemia; 1.53 µM with COLO 205 colon; 22.5 µM with HOP-92 NSCLC; 16.6 µM in the test with SN12C renal; 9.82 µM in the test with NCI-H226 lung; 21.6 µM in the test on T-47D breast. Further, the TGI is 18.1 µM with SF-268 CNS, above 100 µM in the test on SR leukemia, 16.8 µM in the test on HOP-62 NSCLC and 8.4 µM in the test on 786-0 renal.
In the case of `Cc1ccc2occ/c(=N\Nc3ccccc3)c2c1`, the TGI in the test on RPMI-8226 leukemia is above 100 µM; in the test with COLO 205 colon, above 100 µM; in the test on HOP-92 NSCLC, 97.4 µM; in the test with SN12C renal it was above 100 µM; in the test on NCI-H226 lung it was above 100 µM; with T-47D breast, 30.5 µM. The TGI in the test with SF-268 CNS, with SR leukemia, in the test with HOP-62 NSCLC and in the test with 786-0 renal was above 100 µM throughout.
For `CCOC(=O)C1=C(N)Oc2c(sc3c(C)cccc23)C1c1ccc(F)cc1` (stereo not given), the GI50 with RPMI-8226 leukemia was 0.489 µM; in the test with COLO 205 colon it was 0.633 µM; in the test with HOP-92 NSCLC, 2.13 µM; in the test on SN12C renal, 1.11 µM; in the test on NCI-H226 lung, 0.579 µM; in the test on T-47D breast, 2.61 µM. For the same molecule, the GI50 is 1.61 µM with SF-268 CNS, 0.47 µM with SR leukemia, 0.618 µM in the test with HOP-62 NSCLC and 1.25 µM in the test with 786-0 renal. The TGI amounted to 5.38 µM in the test with RPMI-8226 leukemia; 5.77 µM in the test with COLO 205 colon; 13.4 µM with HOP-92 NSCLC; 14.5 µM in the test with SN12C renal; 10.6 µM in the test on NCI-H226 lung; 26.4 µM in the test with T-47D breast. The TGI in the test with SF-268 CNS amounted to 19.4 µM; in the test on SR leukemia it was 17.9 µM; in the test on HOP-62 NSCLC it was 20.1 µM; in the test with 786-0 renal, 17.9 µM.
On to `Cn1c(=S)c2[nH]c(SCCCc3ccccc3)nc2n(C)c1=O`, for which the TGI was 92.6 µM in the test with RPMI-8226 leukemia; 25.4 µM in the test with COLO 205 colon; above 100 µM in the test with HOP-92 NSCLC; above 100 µM in the test with SN12C renal; 81.1 µM with NCI-H226 lung; above 100 µM in the test with T-47D breast. Besides, the TGI with SF-268 CNS is above 100 µM; with SR leukemia, 27.4 µM; in the test with HOP-62 NSCLC, above 100 µM; in the test with 786-0 renal it was above 100 µM.
On to `Cc1noc2c1-c1ccccc1C(c1ccc(Cl)cc1)=N[C@H]2CC(N)=O`, for which the GI50 is 0.362 µM in the test on RPMI-8226 leukemia; 0.646 µM in the test with COLO 205 colon; 0.54 µM in the test with HOP-92 NSCLC; 38.2 µM in the test with SN12C renal; 11.6 µM in the test with NCI-H226 lung; 3.48 µM with T-47D breast. Moreover, the GI50 is 33.8 µM in the test on SF-268 CNS, 0.976 µM in the test on SR leukemia, 2.6 µM with HOP-62 NSCLC and 10.9 µM with 786-0 renal. The TGI in the test with RPMI-8226 leukemia was 10.7 µM; in the test with COLO 205 colon it was above 51.7 µM; in the test with HOP-92 NSCLC, above 100 µM; in the test on SN12C renal, above 100 µM; with NCI-H226 lung it was above 100 µM; with T-47D breast, above 100 µM. The TGI in the test with SF-268 CNS was above 100 µM; in the test with SR leukemia it was above 70.6 µM; with HOP-62 NSCLC, above 100 µM; in the test on 786-0 renal, above 100 µM.
In the case of `C=C1C(O)C2C(=C(C)C13CC3)C(=O)C(C)(C)C2OC` (stereo not given), the GI50 in the test on RPMI-8226 leukemia is 41.3 µM; with COLO 205 colon, 95.6 µM; with HOP-92 NSCLC, 24.8 µM; in the test with SN12C renal it was above 100 µM; in the test with NCI-H226 lung it was above 100 µM; with T-47D breast, 23.1 µM. Further, the GI50 in the test with SF-268 CNS was above 100 µM; with SR leukemia, 38 µM; in the test on HOP-62 NSCLC, above 100 µM; with 786-0 renal, above 100 µM. Further, the TGI was above 100 µM in the test with RPMI-8226 leukemia; above 100 µM in the test with COLO 205 colon; above 100 µM in the test with HOP-92 NSCLC; above 100 µM in the test on SN12C renal; above 100 µM in the test with NCI-H226 lung; 67.8 µM with T-47D breast. Also, the TGI with SF-268 CNS, in the test with SR leukemia, in the test on HOP-62 NSCLC and in the test on 786-0 renal was above 100 µM each time.

The record behind these values is PubChem BioAssay (NCI).
